From patent US5928627A, “Fluorescent chelates as visual tissue specific imaging agents” (The Dow Chemical Company, priority 1997, dated 1999)
Entries after “also recorded” stand apart in the source; their conditions may differ. Like-named read-outs stand apart in the source and are kept apart here.

Key:
[1] = tested on: rat bone and intestinal tissues; conditions: in vivo
[2] = tested on: colon adenocarcinoma (1,2 dimethylhydrazine induced tumors); assay: Fluorescence imaging of normal versus neoplastic colon tissue after lavage; assay type: in vivo, Sprague Dawley rat; conditions: 0.1 mmol/kg, 20 minutes
Procedure: Tumors were induced in Sprague Dawley rats via injection of 1,2 dimethylhydrazine dihydrochloride and the subsequent feeding of a high fat, meat-based diet. […] One animal with an observable lesion was anesthetized, allowing it to respire during lavage introduction of the fluorescent marker. An aqueous solution of Tb-PTCMB at a concentration of 0.1 mmol/kg animal body weight, was administered to a Sprague Dawley rat using the 1.0 mm working lumen of the micro-endoscope. Introduction of the marker solution was made at the site of the suspect tissue mass with a volume necessary to fill the entire large intestine (method described in U.S. Pat. No. 5,456,245). […]
Upon dissection of the large intestine, a large occlusive mass approximately 4.5 cm by 5.0 cm was found approximately 15 cm from the rectum. […] Four slides from each tissue region were first left unstained for fluorescence microscopy imaging as described below and then stained with Hematoxylin and Eosin (H&E stain). Using standard histological criteria for diagnosis, tissue taken from the suspect site was determined to be adenocarcinoma. […] The tissue taken from a location removed from the abnormality was determined to be normal.
Using an in-house modified microscope, samples from the suspect and remote regions of the animal were imaged. Shown in FIGS. 10C and 11C are the fluorescence images of the identical regions of the same tissues. […]

HT-29 cells = assay: Cytotoxicity HT-29 cells (Trypan blue); assay type: cell-based; conditions: 2 mL of 2 mM Tb-PCTMB
Procedure: HT-29 cell lines were obtained from American Type Culture Collection (ATCC) and maintained in Dulbecco's Modified Eagle Medium (DMEM) with 10% fetal bovine serum. Tree days prior to confluence, the cells were inoculated with 2 mL of 2 mM Tb-PCTMB and allowed to grow to confluence. Two days prior to confluence, the unbound TB-PCTMB was removed with four washings of PBS and the cells were removed from the flask with 3 mL of trypsin. The cell suspension was transferred to a centrifuge tube with 12 mL of growth media and spun a 1000 g for 10 minutes to pellet the cells. The media and the trypsin were removed and the cell suspension was resuspended in 5 mL of media. For ease in counting, 100 μL of the cell suspension was mixed with 100 μL of media in a microfuge tube. Fifty μL of this dilution was mixed with 50 μL of Trypan blue stain and loaded into the hemocytometer. The cells in 5 squares on the hemocytometer were counted where stained cells were dead and unstained cells were alive. Multiplication of the average count per square by the dilution factor (4) gave the number of cells×10^4 per mL. The number of cells reported is the average of three individual counts.

IEC-6 cells = assay: Cytotoxicity IEC-6 cells; assay type: cell-based
Source text: *Average of triplicate counting. Procedure detailed in Ref. 27

[3] = tested on: rat bone and intestinal tissues; assay: Tissue fluorescence microscopy/tissue selectivity of Tb chelates in rats
rat bone (femur) = assay: Micro-endoscopic fluorescence imaging of rat femur; assay type: in vivo
Source text: The optical train used is depicted in FIG. 5. For the resolution studies a 1951 USAF resolution target was used. The resolution target consists of groups of elements (lines) that are a known width, length and distance apart. The lines on the target are made from a black emulsion deposited onto a white positive background (clear glass). The images are obtained by back illuminating the resolution target using an IR filtered xenon discharge lamp. The beam from an optical fiber passes through a diffuser of in-house construction which replaces the 270 nm interference filter (4) shown in FIG. 5. The distance of the scope tip from the target (1.5 mm) was chosen so that the best in-focus image is produced. The image was collected by a 0°, 30° and 60° viewing angle with respect to the central axis of the thin rod lens endoscope. A 10× microscope objective, placed 10 mm from the endoscope, collected, magnified and played the image onto a CCD (5). […] The software produces a graph of light intensity as a function of position across the line pairs. The limiting resolution (LP/mm) is calculated using a aerial image modulation (AIM) plot and is defined as the point where the dI/dx remains constant.
Field of view measurements were made by repositioning the target so that a single line laterally spanned the field of view of the endoscope. The circular field of view is easily calculated knowing the length of the line on the resolution target the represents the diameter of the viewing zone. […]
For analysis of the bone fluorescence, two rats were injected with Tb-PCTMP or Tb-BP2P. […]
For the fluorescence measurements, the instrument in FIG. 5 was modified. […] A 550 nm bandpass filter was placed between the microscope objective (3) and the CCD (5) to select fluorescence and block background light. […]
Upon visual inspection of the high resolution video monitor (7), resolution of 181 LP/mm can be obtained. […] As calculated in a manner similar to Example II, it is possible to estimate the quantity of solute within a particular imaged zone. […]

UMR106 cells = assay: Subcellular uptake fluorescence in UMR106 cells (organelle and membrane smears); assay type: cell-based; conditions: 2 mL of 2×10^-3 M
Procedure: UMR106 cells were obtained from American Type Culture Collection and maintained in Basal Eagle Media with 10% fetal bovine serum. Cells were propagated so that 3×10^7 cells were contained in 25 mL. One day prior to confluence, the cells were inoculated with 2 mL of 2×10^-3 M Tb-PCTMP. At confluence, the media and Tb-TCTMP was removed with four washings of PBS. Cells were separated from the flask with 3 mL of trypsin, transferred to a centrifuge tube with 12 mL of media and spun at 1000 g for 10 minutes to pellet the cells. The pellet was resuspended in 2 mL of media and frozen by submersion of the tube into liquid nitrogen. The frozen mixture was scooped out of the tube and transferred to a mortar. To the mixture, an equal weight of sea sand and 10 mL of liquid nitrogen were added. This mixture was ground with a pestle for 30 minutes until liquefied. The resulting mixture was transferred to a centrifuge tube and spun at 10,000 rpm for 15 minutes leaving intact cells, sand and membranes in the pellet and the cytoplasmic organelles in the supernatant. The supernatant was spun at 45,000 rpm for 90 minutes in an ultracentrifuge tube to pellet the organelles. […] Both the membranes and the organelles were smeared onto microscope slides and analyzed using a Zeiss microscope, modified for UV excitation.

[4] = Fluorescence properties of the complexes; assay type: physicochemical; conditions: excited with a UV lamp
Source text: The use of terbium (Tb) or europium (Eu) as the central metal ion to render a tissue specific fluorescent probe is very appealing. Derivatives of this type would be valuable for visual assessment of tissue conditions such as early detection of cancer and would not depend upon protein conjugation to reach their target. Furthermore, concentration of the active fluorescent material could conceivably be much higher than in the case of immunoassays making detection much easier. The present complexes have an excitation band of 250 to 290 nm and a spike emission with peaks at bands of 490 to 510 nm, 540 to 560 nm, 590 to 600 nm and 615 to 635 nm, high quantum efficiency and millisecond relaxation lifetimes which allow signal collection after prompt tissue autofluorescence has subsided and allows data collection outside the range for normal tissue fluorescence. […] Furthermore, chelates derived from this family of macrocyclic ligands are among the most thermodynamically and kinetically inert lanthanide complexes, a paramount consideration for biological studies where metal ion toxicity is of major importance.

O=P(O)(O)CN1Cc2cccc(n2)CN(CP(=O)(O)O)Cc2cccc(n2)C1.[Tb] [Tb-BP2P, terbium N,N'-bis(methylenephosphonic acid)-2,11,diaza[3.3]-(2,6)pyridinophane]
distribution of the chelate in bone [1]: fairly uniform

CCCCOP(=O)(O)CN1CCN(CP(=O)(O)OCCCC)Cc2cccc(n2)CN(CP(=O)(O)OCCCC)CC1.[Tb] [Tb-PCTMB, terbium 3,6,9-tris(methylenephosphonic acid n-butyl ester)-3,6,9,15, tetraazabicyclo[9.3.1]pentadeca-1(15),11,13-triene]
relative difference between the quantity of marker solute in normal versus neoplastic tissue [2]: an order of magnitude
uptake by abnormal colon tissue [2]: preferential or enhanced uptake
Total (Cells/ml) (HT-29 cells; average of triplicate counting, control 5.30 × 10^6): 4.70 × 10^6 Cells/ml
Dead Cells (HT-29 cells; control 5.7%): 8.5%
Live Cells (HT-29 cells; control 94.3%): 91.5%
Total Cells (IEC-6 cells; average of triplicate counting, control 5.70 × 10^6): 5.30 × 10^6
Dead Cells (IEC-6 cells; control 10.5%): 9.4%
Live Cells (IEC-6 cells; control 89.5%): 90.6%
interactions between the chelate and blood proteins [1]: enhances interactions between the chelate and blood proteins
tissue uptake/selectivity [3]: substantial hepatobiliary uptake; also recorded: concentrates in the small intestine

O=P(O)(O)CN1CCN(CP(=O)(O)O)Cc2cccc(n2)CN(CP(=O)(O)O)CC1.[Tb] [Tb-PCTMP, terbium 3,6,9-tris(methylenephosphonic acid)-3,6,9,15-tetraazabicyclo[9.3.1]pentadeca-1(13),11,13-triene]
quantity per pixel, blue-purple contour (rat bone (femur); excised rat femur, FIG. 8): 1.54×10^-15 moles Tb-PCTMP/pixel
quantity per pixel, red contour (rat bone (femur); excised rat femur, FIG. 8): 3.35×10^-15 moles Tb-PCTMP/pixel
solute present in entire imaged region of the bone (surface) (rat bone (femur); rat femur, 2 hours): about 5.19 picomoles
fluorescence in the organelle smear of dosed cells (UMR106 cells; control no discernible fluorescence): significant fluorescence was detected
fluorescence in the membrane smears (UMR106 cells; dosed and control cells): No signal was detected
visible emission of the isolated complex [4]: brilliant green visible emission
tissue uptake/selectivity [1]: skeletal system uptake
